Where “and” joins values, the source holds several entries; their conditions need not be identical. Identical values can stand only once. Entries after “also recorded” stand apart in the source; their conditions may differ. Like-named read-outs stand apart in the source and are kept apart here. Each block holds one molecule with its values, some of them ahead of it.
Experiments:
[1] = system: PC3 human prostate carcinoma; assay: In vitro antitumor activity of terpenes against PC3 (seven day exposure); type: cell-based; details: for activity compared with farnesol (standard): FIGS. 7-9, relative to farnesol; for IC50: Homo sapiens, 168 h, PC3, seven day exposure; for activity against the human prostate cancer cells: FIGS. 1-6, growth as % of untreated control
Protocol: A human prostate carcinoma cell line, PC3, was obtained from the American Tissue Culture Collection, Accession No. CRL 1435. The PC3 cells were cultured in RPMI 1640 medium enriched with 10% fetal calf serum (FCS). The medium and the FCS are both available from GIBCO BRL Life Technologies, Inc., 8400 Helgeman Lane, Gaithersburg, Md. 20877.
Terpenes were exposed to the PC3 cells as follows. On day 0, seed PC3 cells at about 1,000 cells per well were placed in each well of a 96-well tissue culture plate along with […] (ml) of culture medium. On day 1, various concentrations of each of the selected terpenes were added. A serial dilution of each terpene was made in dimethyl sulfoxide (DMSO). All of the initial concentrations were about 200 times the desired concentration. Each dose was further diluted 100 times with culture medium. 0.1 ml of each dose was added per well to the tissue culture plate. The plates were incubated at 37° Celsius (C) under 5% carbon dioxide (CO2) for seven days. The results are depicted graphically in FIGS. 1-9 and some of the concentrations which inhibited cell growth to about 50% of the control growth (IC50) are shown in Table 1.

[2] = system: prostate tumor cells; assay: Apoptosis and nuclear fragmentation (DNA ladder gel); type: cell-based; details: for DNA ladder indicative of apoptosis: 2% agarose minigel
Protocol: The invention examined the effect on prostate tumor cells of treatment with limonene, farnesol and phytol. […] The classic signature of apoptosis is the cleavage of nuclear DNA into nucleosomal subunits. On gels, this gives rise to the appearance of a ladder as nucleosomal units are sequentially cleaved from the DNA.
After drug exposure, cells were lysed and the high molecular DNA removed by centrifugation. The aqueous phase was treated with proteinase K to digest proteins. After a phenol/chloroform extraction, the DNA was precipitated with salt and ethanol. The pellet was dissolved in deionized water and treated with 500 μg/ml RNase A. The DNA was run on a 2% agarose minigel.

[3] = system: A172 glioblastoma; assay: Effect of limonene on tumor cell proliferation, A172; type: cell-based; details: Homo sapiens, A 172, 96 h; RPMI 1640; three to four days of continuous treatment
Protocol: (§1) Limonene (Sigma) was evaluated for its effect on proliferation of various tumor cell lines. The cell lines included U87 and A172 (both are glioblastomas), HOS (a low ras osteosarcoma), AD5 (a high ras osteosarcoma), and HT29 (a high ras colon carcinoma). An activated or high ras means that the ras oncogene has mutated to a form which can transform normal cells to malignant cells. The glioblastoma cells were grown in RPMI 1640 culture medium and the other three cell lines were grown in Dulbecco's Modified Eagle's Medium (DMEM, available from GIBCO).
(§2) Limonene was added to the growth medium, which was supplemented with 10% FCS, and incubated at 37° C. for 24 hours. The medium was added to human tumor cells plated the previous day in 60 millimeter (mm) tissue culture (TC) dishes. After three to four days of continuous treatment, the cells were detached by trypsinization and counted using a hemocytometer (Hy-Lite Counting Chamber from Fisher Scientific, 711 Forbes Ave., Pittsburgh, Pa. 15219-4785). Cell viability was determined by a trypin blue exclusion method as described in detail in the manufacturer's instructions.

[4] = Tolerability and body weight of nude mice treated with limonene; type: in vivo
Protocol: (§3) Nude mice were obtained from Cancer Research Facility in Frederick, Md. The strain name is Athymic MCR-nude. PC3 cells were transplanted into both the right and left flanks of nude mice and allowed to grow until the tumor size reached the volume of approximately 200-300 cubic mm (mm^3). At this time, five mice bearing ten tumors total were allocated to each group.
(§4) The drug or vehicle alone were administered by gavage once daily Monday through Friday for two weeks. The control group received olive oil at a dose of 0.1 cubic centimeters (cc) per ten grams (gm) of body weight. […] Both body weight and tumor volume were measured daily.

[5] = system: U87 glioblastoma; assay: Effect of limonene on tumor cell proliferation, U87; type: cell-based; details: Homo sapiens, 96 h; RPMI 1640; three to four days of continuous treatment
Protocol: as §1, §2

[6] = system: AD5 osteosarcoma (high ras); assay: Effect of limonene on tumor cell proliferation, AD5; type: cell-based; details: Homo sapiens, 96 h; DMEM; three to four days of continuous treatment
Protocol: as §1, §2

[7] = system: HOS osteosarcoma (low ras); assay: Effect of limonene on tumor cell proliferation, HOS; type: cell-based; details: Homo sapiens, 96 h; DMEM; three to four days of continuous treatment
Protocol: as §1, §2

[8] = system: HT29 colon carcinoma (high ras); assay: Effect of limonene on tumor cell proliferation, HT29; type: cell-based; details: Homo sapiens, HT-29, 96 h; DMEM; three to four days of continuous treatment
Protocol: as §1, §2

[9] = to compounds having terminal hydroxy groups; cited from earlier work
[10] = system: AD5 human osteosarcoma cell line; assay: Effect of limonene on radiation sensitivity of tumor cells; type: cell-based; details: 3 mM limonene; FIG. 10
Protocol: An activated ras oncogene makes tumor cells resistant to radiation therapy. The AD5 human osteosarcoma cell line is an example of such a cell line resistant to radiation by virtue of an activated ras oncogene. AD5 cells were cultivated as described in Example 2. Limonene was prepared in various concentrations also as described in Example 2. […] This dose refers to the dose that reduces the number of surviving cells to about 37% of the control cells. Gy (gray) is an international metric unit for an absorbed dose of radiation. One Gy equals one Joule/kg.

[11] = system: PC3 human prostate carcinoma; assay: In vivo antitumor activity of d-limonene against PC3 in nude mice; design: species or system nude mice (human PC3 tumor); details: gavage once daily Monday through Friday for two weeks
Protocol: as §3, §4

[12] = system: tumor cell lines U87, A172, HOS, AD5, HT29; assay: Cell viability of surviving cells in the proliferation test (exclusion method); type: cell-based, human; details: of the approximately 50% of cells which survived (at IC50)
Protocol: as §2

[13] = design: species or system nude mice; details: mouse, in vivo
Protocol: as §3
(§5) The drug or vehicle alone were administered by gavage once daily Monday through Friday for two weeks. The control group received olive oil at a dose of 0.1 cubic centimeters (cc) per ten grams (gm) of body weight. Other groups received the same volume of olive oil with limonene added to give a daily dose of limonene of 0.1, 1.0 or 2.0 […]. Both body weight and tumor volume were measured daily.
(§6) The experimental procedure of Example 5 was followed except that phytol was used in place of limonene. […] The results are depicted in FIG. 13 which plots the percent change of tumor volume versus the number of days after inoculation of the nude mice with […] tumor cells.

[14] = system: PC3 human prostate carcinoma; assay: In vivo antitumor activity of phytol against PC3 in nude mice; design: species or system nude mice (human PC3 tumor)
Protocol: as §3, §5, §6

SMILES: CC(C)c1ccc(C=O)cc1 [4-isopropylbenzaldehyde]
- activity compared with farnesol (standard) [1]: less active

SMILES: CC(C)c1ccc(C(=O)O)cc1 [4-isopropylbenzoic acid]
- activity compared with farnesol (standard) [1]: less active

SMILES: CC(C)c1ccc(CO)cc1 [4-isopropylbenzylalcohol]
- activity compared with farnesol (standard) [1]: less active

SMILES: O=C(O)CCCCCCCCCCCCCCCO [16-hydroxyhexadecanoic acid]
- activity compared with farnesol (standard) [1]: less active

- IC50 [1]: 147 µM and 21 µg/mL
SMILES: C=CC(=C)CCC=C(C)C [beta-myrcene]

- IC50 [1]: 17 µM and 3 µg/mL
SMILES: CC(C)=CCCC(C)=CC=O [citral]
- activity against the human prostate cancer cells [1]: favorable activity

SMILES: CC(C)=CCCC(C)CC=O (stereo not drawn) [citronellal]
- activity compared with farnesol (standard) [1]: less active

SMILES: CC(C)=CCCC(C)CC(=O)O (stereo not drawn) [citronellic acid]
- activity compared with farnesol (standard) [1]: less active

SMILES: CC(C)=CCC[C@@H](C)CCO [d-citronellol]
- activity compared with farnesol (standard) [1]: less active

SMILES: C=CC(C)CCCC(C)(C)O (stereo not drawn) [dihydromyrcenol]
- activity compared with farnesol (standard) [1]: less active

- IC50 [1]: 85.6 µM and 19 µg/mL
SMILES: CC(C)=CCC/C(C)=C/CC/C(C)=C/CO [farnesol, trans, trans-farnesol]
- mode of cell death [2]: apoptosis, not necrosis
- tumor cell death (not cytostasis) [2]: tumor cell death (not cytostasis) was observed
- DNA ladder indicative of apoptosis [2]: a classic DNA ladder indicative of apoptosis has been noted; also recorded: classic DNA ladders
- activity against the human prostate cancer cells [1]: favorable activity

SMILES: CC(C)=CCC/C(C)=C/CC/C(C)=C/C(=O)O [farnesylic acid]
- activity against the human prostate cancer cells [1]: favorable activity

- IC50 [1]: 10.5 µM and 3 µg/mL
SMILES: CC(C)=CCC/C(C)=C/CC/C(C)=C/CC/C(C)=C/CO [geranylgeraniol]
- activity against the human prostate cancer cells [1]: favorable activity

SMILES: C=C(C)[C@H]1CC=C(C)CC1 [limonene, d-Limonene]
- mode of cell death [2]: apoptosis, not necrosis
- tumor cell death (not cytostasis) [2]: tumor cell death (not cytostasis) was observed
- DNA ladder indicative of apoptosis [2]: a classic DNA ladder indicative of apoptosis has been noted; also recorded: classic DNA ladders
- IC50 [3]: 1500 ± 500 µM
- tolerability ([4]; gavage, two weeks, up to 2.0 gm/kg): appeared to tolerate the drug well
- loss in weight ([4]; mouse, in vivo): not a statistically significant loss in weight
- IC50 [5]: 2100 ± 400 µM
- IC50 [6]: 4800 ± 600 µM
- IC50 [7]: 3000 ± 300 µM
- IC50 [1]: 217 µM and 30 µg/mL
- IC50 [8]: 4500 ± 500 µM
- metabolism in vivo [9]: rapidly metabolized
- effect on radiation dose response curve [10]: alters both the shoulder and the dose (Do) of the radiation dose response curve
- rate of tumor growth vs control group ([11]; 0.1 gm/kg): the same
- rate of tumor growth vs control group ([11]; 1.0 gm/kg): the same
- rate of tumor growth vs control group ([11]; 2.0 gm/kg): approximately half of that in the control group
- cell viability [12]: > 95%

SMILES: CC(C)=CCC/C(C)=C\CO [nerol]
- activity compared with farnesol (standard) [1]: less active

- IC50 [1]: 90.1 µM and 20 µg/mL
SMILES: C=CC(C)(O)CCC=C(C)CCC=C(C)C (stereo not drawn) [nerolidol]
- activity against the human prostate cancer cells [1]: favorable activity

SMILES: C=C(C)C1CC=C(C=NO)CC1 (stereo not drawn) [perillartine]
- activity compared with farnesol (standard) [1]: less active

SMILES: C/C(=C\CO)CCC[C@H](C)CCC[C@H](C)CCCC(C)C [phytol]
- mode of cell death [2]: apoptosis, not necrosis
- tumor cell death (not cytostasis) [2]: tumor cell death (not cytostasis) was observed
- DNA ladder indicative of apoptosis [2]: a classic DNA ladder indicative of apoptosis has been noted
- tolerability [13]: tolerated the phytol well
- activity against the human prostate cancer cells [1]: favorable activity
- IC50 [1]: 34.3 µM and 10 µg/mL
- tumor production during the treatment period ([14]; during the treatment period): negligible tumor production
- tumor volume as compared to the control animals ([14]; phytol by procedure of Example 5): lower tumor volume

Reference: US5602184A, “Monoterpenes, sesquiterpenes and diterpenes as cancer therapy” (priority 1993, dated 1997)
